Earlier results on one molecule are cited in US20190269662A1, “SOLID COMPOSITIONS OF ACTIVES, PROCESSES FOR PREPARING SAME AND USES OF SUCH SOLID COMPOSITIONS” (The University of Liverpool, priority 2018, published 2019).

The conditions of this series: background statement; cited from earlier work.

For `Cc1nnc(C(C)C)n1[C@@H]1C[C@H]2CC[C@@H](C1)N2CC[C@H](NC(=O)C1CCC(F)(F)CC1)c1ccccc1` [maraviroc], the oral bioavailability result is on record as “approximately 33%”.
